# Values of other authors in patent publication US8158161B2, “Methods and pharmaceutical compositions useful for treating psoriasis” (S.U.L.V.E. Ltd., priority 2005, dated 2012).
# Tested on: K562 cells
# Settings: Leoni 1997
structure (smiles),measurement,value
C=CCN=C=S [2-Propenyl-isothiocyanate],rank among isothiocyanates tested as inhibitors of leukemic cell growth,most potent inhibitors
S=C=NCc1ccccc1 [Benzyl-isothiocyanate],rank among isothiocyanates tested as inhibitors of leukemic cell growth,most potent inhibitors
